Results on 17 molecules are retold here after patent US9790221B2, “Heteroaryl compounds as IRAK inhibitors and uses thereof” (Merck Patent GmbH, priority 2014, dated 2017).

The target in experiment [1] is IRAK1 (His-TEV-IRAK1 (194-712)) (Homo sapiens (Human), UniProt P51617). Briefly: IRAK1 enzymatic assay. The experiment is classed as biochemical. In short, it runs like this: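 Compounds ([…] down to 1 nM) were incubated 3 h at 30° C with His-TEV-IRAK1 (194-712, 15 ng/well) and 1 μM [33P]-labelled ATP in 50 mM Hepes pH 7.0, 10 mM MgCl2. After EDTA stop and washing, the retained autophosphorylation signal was measured by scintillation in streptavidin-coated plates.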
Chain of IRAK1 (His-TEV-IRAK1 (194-712)) (P51617 194-712): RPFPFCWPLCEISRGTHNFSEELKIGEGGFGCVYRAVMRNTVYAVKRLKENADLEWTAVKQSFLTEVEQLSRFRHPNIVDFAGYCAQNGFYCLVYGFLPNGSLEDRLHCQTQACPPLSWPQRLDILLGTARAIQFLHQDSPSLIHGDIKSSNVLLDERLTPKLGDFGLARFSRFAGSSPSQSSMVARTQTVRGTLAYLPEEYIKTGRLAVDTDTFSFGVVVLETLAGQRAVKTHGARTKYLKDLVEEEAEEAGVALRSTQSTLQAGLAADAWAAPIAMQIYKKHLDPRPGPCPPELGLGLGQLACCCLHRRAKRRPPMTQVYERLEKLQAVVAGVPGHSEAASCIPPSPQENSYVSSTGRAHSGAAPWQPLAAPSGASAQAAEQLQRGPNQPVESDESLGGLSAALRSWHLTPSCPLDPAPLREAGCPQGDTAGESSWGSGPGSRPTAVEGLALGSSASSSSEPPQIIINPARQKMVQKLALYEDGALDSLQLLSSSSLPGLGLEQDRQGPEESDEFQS

Experiment [2] deals with IRAK4 (Homo sapiens (Human), UniProt Q9NWZ3). Description: IRAK4 enzymatic assay. It is filed as biochemical. In short, it runs like this: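 Radiometric streptavidin FlashPlate read: 3 h, 30° C incubation of His-TEV-IRAK4 (20 ng/well), STK1-biotin substrate (300 nM) and ATP (2 μM, [^33P]-labelled) in Hepes pH 7.0, MgCl2 10 mM, MnCl2 5 mM. Compounds from 20 µM down to 1 nM, 2% DMSO controls; reaction quenched with EDTA.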
Chain of IRAK4 (Q9NWZ3 whole entry): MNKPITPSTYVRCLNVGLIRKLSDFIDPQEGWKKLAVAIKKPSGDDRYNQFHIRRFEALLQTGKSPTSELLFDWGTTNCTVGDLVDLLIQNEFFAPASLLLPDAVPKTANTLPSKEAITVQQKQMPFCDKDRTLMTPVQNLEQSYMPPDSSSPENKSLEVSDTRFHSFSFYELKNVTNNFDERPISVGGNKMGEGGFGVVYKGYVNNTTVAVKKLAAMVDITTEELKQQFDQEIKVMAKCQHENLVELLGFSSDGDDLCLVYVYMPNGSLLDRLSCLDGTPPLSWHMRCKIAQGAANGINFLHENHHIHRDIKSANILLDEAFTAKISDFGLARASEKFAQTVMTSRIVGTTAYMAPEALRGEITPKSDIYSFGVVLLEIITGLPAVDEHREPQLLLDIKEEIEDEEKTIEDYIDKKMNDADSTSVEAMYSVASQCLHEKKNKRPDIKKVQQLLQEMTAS

`CC(=O)N1CCC(F)(CNc2nc(-c3cccc(-c4cnn(C)c4)c3)ncc2-c2cnn(C)c2)CC1` [Example 237]: the results for the half-inhibitory concentration (IC50) in experiment [1] and in experiment [2] were 1000 to 5000 nM and 100 to 1000 nM, respectively.
As to `Cn1cc(-c2cccc(-c3ncc(-c4cnn(C)c4)c(NCC4(O)CCNCC4)n3)c2)cn1` [Example 240], the results for the IC50 in experiment [1] and in experiment [2] were above 5000 nM and 100 to 1000 nM, respectively.
For `Cn1cc(-c2cccc(-c3ncc(-c4cnn(C)c4)c(N4CC[C@@H](N)C4)n3)c2)cn1` [Example 241], the IC50 was 1000 to 5000 nM in experiment [1] and 100 to 1000 nM in experiment [2].
On to `CC(=O)N[C@@H]1CCN(c2nc(-c3cccc(-c4cnn(C)c4)c3)ncc2-c2cnn(C)c2)C1` [Example 246], for which the 50% inhibitory concentration (IC50) in experiment [1] was above 5000 nM; in experiment [2], 1000 to 5000 nM.
As to `Cn1cc(-c2cccc(-c3ncc(-c4cnn(C)c4)c(N4CC[C@@H](NS(C)(=O)=O)C4)n3)c2)cn1` [Example 247], the figures for the IC50 in experiment [1] and in experiment [2] were 1000 to 5000 nM and 100 to 1000 nM, respectively.
Turning to `Cn1cc(-c2cccc(-c3ncc(-c4cnn(C)c4)c(NCC4(O)CCN(S(C)(=O)=O)CC4)n3)c2)cn1` [Example 249], the 50% inhibitory concentration (IC50) in experiment [1] lay in the range of 1000 to 5000 nM; in experiment [2] it was 100 to 1000 nM.
On the same counts, the results for `Cn1cc(-c2cccc(-c3ncc(-c4cnn(C)c4)c(N4CCC(NS(C)(=O)=O)CC4)n3)c2)cn1` [Example 250] are 1000 to 5000 nM and 100 to 1000 nM.
Turning to `Cn1cc(-c2cccc(-c3ncc(-c4cnn(C)c4)c(NCCC4CCCCN4)n3)c2)cn1` (stereo not shown) [Example 251], the IC50 is above 5000 nM in experiment [1] and 1000 to 5000 nM in experiment [2].
The corresponding values for `Cn1cc(-c2cccc(-c3ncc(-c4cnn(C)c4)c(NCC4(N)CCCCC4)n3)c2)cn1` [Example 252] are 100 to 1000 nM and below 100 nM.
As for `CC(=O)N1CCC(Nc2nc(-c3cccc(-c4cnn(C)c4)c3)ncc2-c2cnn(C)c2)CC1` [Example 255], the half-inhibitory concentration (IC50) in experiment [1] and in experiment [2] was 100 to 1000 nM throughout.
On to `CC(=O)N1CCCCC1CCNc1nc(-c2cccc(-c3cnn(C)c3)c2)ncc1-c1cnn(C)c1` (stereo not shown) [Example 258], for which the results for the IC50 in experiment [1] and in experiment [2] were above 5000 nM and 100 to 1000 nM, respectively.
As for `Cn1cc(-c2cccc(-c3ncc(-c4cnn(C)c4)c(NCCC4CCCCN4S(C)(=O)=O)n3)c2)cn1` (stereo not shown) [Example 259], the IC50 in experiment [1] was above 5000 nM; in experiment [2] it was 100 to 1000 nM.
On to `Cn1cc(-c2cccc(-c3ncc(-c4cnn(C)c4)c(N4CCC(CO)C4)n3)c2)cn1` (stereo not shown) [Example 261], for which the IC50 lay in the range of 1000 to 5000 nM in experiment [1] and 100 to 1000 nM in experiment [2].
`Cn1cc(-c2cccc(-c3ncc(-c4cnn(C)c4)c(N[C@H]4CC[C@@H](N5CCOCC5)CC4)n3)c2)cn1` [Example 263]: the IC50 in experiment [1] is above 5000 nM; in experiment [2], 1000 to 5000 nM.
On to `Cn1cc(-c2cccc(-c3ncc(-c4cnn(C)c4)c(N4CCC(CN)C4)n3)c2)cn1` (stereo not shown) [Example 264], for which the IC50 was above 5000 nM in experiment [1] and 1000 to 5000 nM in experiment [2].
With `CC(Nc1nc(-c2cccc(-c3cnn(C)c3)c2)ncc1-c1cnn(C)c1)C1CCN(S(C)(=O)=O)CC1` (stereo not shown) [Example 274], the half-maximal inhibitory concentration (IC50) was above 5000 nM in experiment [1] and 100 to 1000 nM in experiment [2].
As to `CC(=O)N1CCC(O)(CNc2nc(-c3cccc(-c4cnn(C)c4)c3)ncc2-c2cnn(C)c2)CC1` [Example 277], the results for the IC50 in experiment [1] and in experiment [2] were above 5000 nM and 100 to 1000 nM, respectively.

For orientation: IC50 means the concentration that inhibits the measured activity by half.
